These results are taken from publication PMC10385579, “Design, Synthesis, and Biological Evaluation of Indole-2-carboxamides as Potential Multi-Target Antiproliferative Agents” (Pharmaceuticals, 2023).

Data set [1] is described as follows: Cell viability assay (MTT) on MCF-10A. Type of data set: cell-based. The following applies: human, MCF-10A mammary gland epithelial cells, MCF-10A cells, four days. As to the method:
To assess the viability of compounds IV and Va–i, the human mammary gland epithelial (MCF-10A) cell line was exploited. Compounds IV and Va–i were cultured for four days on MCF-10A cells before being evaluated for vitality using the MTT assay.
To test the viability of the new compounds, the human mammary gland epithelial (MCF-10A) cell line was used. Compounds IV and Va–i were incubated on MCF-10A cells for four days before being tested for viability using the MTT assay. See Supplementary Materials.
4.2. Biological evaluation
4.2.1. Cytotoxic activity using MTT Assay and evaluation of IC50
MTT assay was performed to investigate the effect of the synthesized compounds on mammary epithelial cells (MCF-10A). The cells were propagated in medium consisting of Ham's F-12 medium/ Dulbecco's modified Eagle's medium (DMEM) (1:1) supplemented with 10% foetal calf serum, 2 mM glutamine, insulin (10 μg/mL), hydrocortisone (500 ng/mL) and epidermal growth factor (20 ng/mL). Trypsin ethylenediamine tetra acetic acid (EDTA) was used to passage the cells after every 2-3 days. 96-well flat-bottomed cell culture plates were used to seed the cells at a density of 10^4 cells mL-1. The medium was aspirated from all the wells of culture plates after 24 h followed by the addition of synthesized compounds (in 200 μL medium to yield a final concentration of 0.1% (v/v) dimethyl sulfoxide) into individual wells of the plates. Four wells were designated to a single compound. The plates were allowed to incubate at 37°C for 96 h. Afterwards, the medium was aspirated and 3-[4,5-dimethylthiazol-2-yl]-2,5-diphenyltetrazolium bromide (MTT) (0.4 mg/mL) in medium was added to each well and subsequently incubated for 3 h. The medium was aspirated and 150 μL dimethyl sulfoxide (DMSO) was added to each well. The plates were vortexed followed by the measurement of absorbance at 540 nm on a microplate reader. The results were presented as inhibition (%) of proliferation in contrast to controls comprising 0.1%

The subject of data set [2] is colon cancer (HT-29) cell line. Nature of the data set: Antiproliferative assay, HT-29. Type of data set: cell-based. The following applies: Homo sapiens, read-out: Antiproliferative Activity IC50 ± SEM, HT-29. On the procedure:
4.2.1.2. Assay for antiproliferative effect
To explore the antiproliferative potential of compounds propidium iodide fluorescence assay was performed using different cell lines such as Panc-1 (pancreas cancer cell line), MCF-7 (breast cancer cell line), HT-29 (colon cancer cell line) and A-549 (epithelial cancer cell line), respectively.
To calculate the total nuclear DNA, a fluorescent dye (propidium iodide, PI) is used which can attach to the DNA, thus offering a quick and precise technique. PI cannot pass through the cell membrane and its signal intensity can be considered as directly proportional to quantity of cellular
DNA. Cells whose cell membranes are damaged or have changed permeability are counted as dead ones. The assay was performed by seeding the cells of different cell lines at a density of 3000-7500 cells/well (in200μl medium) in culture plates followed by incubation for 24h at 37 °C in humidified 5%CO2/95% air atmospheric conditions. The medium was removed; the compounds were added to the plates at 10 μM concentrations (in 0.1% DMSO) in triplicates, followed by incubation for 48h. DMSO (0.1%) was used as control. After incubation, medium was removed followed by the addition of PI (25 μl, 50μg/mL in water/medium) to each well of the plates. At - 80 °C, the plates were allowed to freeze for 24 h, followed by thawing at 25 °C. A fluorometer (Polar-Star BMG Tech) was used to record the readings at excitation and emission wavelengths of 530 and 620 nm for each well. The percentage cytotoxicity of compounds was calculated using […]
Where ATC= Absorbance of treated cells and AC= Absorbance of control. Erlotinib was used as positive control in the assay.

Another data set concerns caspase-3. Nature of the data set: Caspase 3 assay in A-549 cells. Type of data set: cell-based, human. The following applies: for Caspase-3 Conc: untreated control 66 pg/mL. As to the method: Caspases play a crucial function in the induction and completion of apoptosis. Caspase-3 is an essential caspase that cleaves different proteins in cells, resulting in apoptosis. […]
4.2.5. Caspase-3 activation assay
Allow all reagents to reach room temperature before use. Gently mix all liquid reagents prior to use. Determine the number of 8-well strips needed for the assay. Insert these in the frame(s) for current use. Add 100 μl of the Standard Diluent Buffer to the zero standard wells. Well(s) reserved for chromogen blank should be left empty. Add 100 μl of standards and controls or diluted samples to the appropriate microtiter wells. The sample dilution chosen should be optimized for each experimental system. Tap gently on side of plate to mix. Cover wells with plate cover and incubate for 2 hours at room temperature. Thoroughly aspirate or decant solution from wells and discard the liquid, Wash wells 4 times. Pipette 100 μl of Caspase-3 (Active) Detection Antibody solution into each well except the chromogen blank(s). Tap gently on the side of the plate to mix. Cover plate with plate cover and incubate for 1 hour at room temperature. Thoroughly aspirate or decant solution from wells and discard the liquid, Wash wells 4 times. Add 100 μl Anti-Rabbit IgG HRP Working Solution to each well except the chromogen blank(s). Prepare the working dilution as described in Preparing IgG HRP. Cover wells with the plate cover and incubate for 30 minutes at room temperature. Thoroughly aspirate or decant solution from wells and discard the liquid. Wash wells 4 times. Add 100 μl of Stabilized Chromoge n to each well. The liquid in the wells will begin to turn blue. Incubate for 30 minutes at room temperature and in the dark. The incubation time for chromogen substrate is often determined by the microtiter plate reader used. Many plate readers have the capacity to record a maximum optical density (O.D.) of 2.0. The O.D. values should be monitored, and the substrate reaction stopped before the O.D. of the positive wells exceeds the limits of the instrument. The O.D. values at 450 nm can only be read after the Stop Solution has been added to each well. If using a reader that records only to 2.0 O.D., stopping the assay after […]
Add 100 μl of Stop Solution to each well. Tap side of plate gently to mix. The solution in the wells should change from blue to yellow. Read the absorbance of each well at 450 nm having blanked the plate reader against a chromogen blank composed of 100 μl each of Stabilized Chromogen and Stop Solution. Read the plate within 2 hours after adding the Stop Solution. Use a curve fitting software to generate the standard curve. A four-parameter algorithm provides the best standard curve fit. Read the concentrations for unknown samples and controls from the standard curve. Multiply value(s) obtained for sample(s) by the appropriate dilution factor to correct for the dilution in step 3. Samples producing signals greater than that of the highest standard should be diluted in Standard Diluent Buffer and reanalyzed.

A further data set deals with EGFR (Homo sapiens, UniProt P00533). Description: EGFR inhibitory assay.
Chain of EGFR (P00533 669-1210): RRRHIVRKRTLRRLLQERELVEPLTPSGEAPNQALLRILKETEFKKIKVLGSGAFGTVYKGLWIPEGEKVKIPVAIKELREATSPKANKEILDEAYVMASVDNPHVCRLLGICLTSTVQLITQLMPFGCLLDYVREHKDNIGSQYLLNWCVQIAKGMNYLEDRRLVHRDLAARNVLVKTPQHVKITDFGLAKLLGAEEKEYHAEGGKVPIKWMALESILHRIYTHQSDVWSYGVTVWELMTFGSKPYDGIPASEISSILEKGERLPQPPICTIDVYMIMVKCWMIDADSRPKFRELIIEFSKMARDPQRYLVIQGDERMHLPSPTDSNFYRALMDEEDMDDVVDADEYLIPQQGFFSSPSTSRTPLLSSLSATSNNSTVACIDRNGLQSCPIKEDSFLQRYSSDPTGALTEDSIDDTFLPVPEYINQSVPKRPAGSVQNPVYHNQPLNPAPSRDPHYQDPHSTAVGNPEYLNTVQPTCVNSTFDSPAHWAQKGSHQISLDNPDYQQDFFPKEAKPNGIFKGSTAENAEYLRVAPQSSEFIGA
The next data set deals with VEGFR-2 (Homo sapiens, UniProt P35968). Nature of the data set: VEGFR-2 inhibitory assay.
Chain of VEGFR-2 (P35968 20-1356): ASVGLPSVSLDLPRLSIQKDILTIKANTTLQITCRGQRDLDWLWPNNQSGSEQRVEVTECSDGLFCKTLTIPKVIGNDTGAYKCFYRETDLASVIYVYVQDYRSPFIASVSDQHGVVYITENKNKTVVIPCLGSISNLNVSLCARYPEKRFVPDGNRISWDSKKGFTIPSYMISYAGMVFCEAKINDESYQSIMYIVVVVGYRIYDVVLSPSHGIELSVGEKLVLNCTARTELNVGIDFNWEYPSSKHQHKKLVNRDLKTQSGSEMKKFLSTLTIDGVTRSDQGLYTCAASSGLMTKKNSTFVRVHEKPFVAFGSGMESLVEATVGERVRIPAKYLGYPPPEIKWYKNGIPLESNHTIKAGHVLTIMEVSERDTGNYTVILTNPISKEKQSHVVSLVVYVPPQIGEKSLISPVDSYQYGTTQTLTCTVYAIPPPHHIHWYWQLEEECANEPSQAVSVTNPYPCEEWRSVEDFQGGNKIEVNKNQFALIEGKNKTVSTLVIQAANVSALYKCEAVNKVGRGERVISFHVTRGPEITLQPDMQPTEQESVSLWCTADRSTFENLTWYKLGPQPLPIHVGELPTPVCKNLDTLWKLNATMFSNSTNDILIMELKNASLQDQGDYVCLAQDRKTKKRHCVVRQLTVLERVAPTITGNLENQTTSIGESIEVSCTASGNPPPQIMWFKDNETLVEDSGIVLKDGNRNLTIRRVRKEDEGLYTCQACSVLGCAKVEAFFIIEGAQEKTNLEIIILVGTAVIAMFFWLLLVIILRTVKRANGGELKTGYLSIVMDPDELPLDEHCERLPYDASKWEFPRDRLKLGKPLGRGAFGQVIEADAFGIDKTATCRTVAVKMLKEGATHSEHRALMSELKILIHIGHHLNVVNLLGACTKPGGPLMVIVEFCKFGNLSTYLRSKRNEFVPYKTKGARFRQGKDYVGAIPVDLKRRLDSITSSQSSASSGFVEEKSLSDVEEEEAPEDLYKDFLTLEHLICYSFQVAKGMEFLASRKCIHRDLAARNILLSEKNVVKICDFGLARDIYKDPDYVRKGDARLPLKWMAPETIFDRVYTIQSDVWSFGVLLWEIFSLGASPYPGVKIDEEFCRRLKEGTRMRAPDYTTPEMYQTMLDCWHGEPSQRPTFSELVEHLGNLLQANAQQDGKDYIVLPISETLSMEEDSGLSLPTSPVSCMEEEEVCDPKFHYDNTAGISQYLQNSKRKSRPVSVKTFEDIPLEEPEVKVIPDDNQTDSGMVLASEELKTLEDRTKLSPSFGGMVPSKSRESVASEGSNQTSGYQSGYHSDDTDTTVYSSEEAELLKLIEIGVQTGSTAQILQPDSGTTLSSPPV
A further data set concerns the target BRAF^V600E (Mus musculus, UniProt P28028, V585E). Description: BRAF^V600E inhibitory assay.

The structures appear in SMILES notation.

By viability is commonly meant a per cent measure of how many cells are alive, often set against a control. As a reminder, the IC50 is the concentration that gives 50% inhibition. As a reminder, the melting point is the temperature of the solid-liquid transition.

Chain of BRAF^V600E (P28028 whole entry V585E): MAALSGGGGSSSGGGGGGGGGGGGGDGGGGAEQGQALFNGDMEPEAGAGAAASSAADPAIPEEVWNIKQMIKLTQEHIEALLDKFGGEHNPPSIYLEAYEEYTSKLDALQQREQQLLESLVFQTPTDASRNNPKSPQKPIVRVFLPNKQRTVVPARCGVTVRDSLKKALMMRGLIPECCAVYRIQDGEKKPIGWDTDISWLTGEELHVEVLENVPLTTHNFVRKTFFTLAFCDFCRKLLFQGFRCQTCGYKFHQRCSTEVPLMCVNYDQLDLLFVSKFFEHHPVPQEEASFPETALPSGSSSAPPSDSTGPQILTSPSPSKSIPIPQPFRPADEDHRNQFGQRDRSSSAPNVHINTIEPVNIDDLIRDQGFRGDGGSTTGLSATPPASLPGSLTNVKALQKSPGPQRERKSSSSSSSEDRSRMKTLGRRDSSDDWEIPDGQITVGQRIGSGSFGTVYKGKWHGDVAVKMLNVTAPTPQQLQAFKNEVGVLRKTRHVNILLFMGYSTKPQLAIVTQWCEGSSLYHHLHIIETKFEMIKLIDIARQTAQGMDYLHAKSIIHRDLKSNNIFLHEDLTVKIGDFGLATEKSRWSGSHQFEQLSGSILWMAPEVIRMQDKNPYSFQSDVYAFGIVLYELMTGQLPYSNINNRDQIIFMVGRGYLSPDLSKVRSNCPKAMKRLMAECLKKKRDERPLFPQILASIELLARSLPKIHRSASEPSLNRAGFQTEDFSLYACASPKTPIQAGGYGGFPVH
Experimental for BRAF^V600E: BRAFV600E inhibitory assay
V600E mutant BRAF kinase assay was performed to investigate the activity of tested compounds against BRAF. Mouse full-length GST-tagged BRAFV600E (7.5 ng, Invitrogen, PV3849) was pre-incubated with drug (1 µL) and assay dilution buffer (4 µL) for 60 min at 25 °C. In assay dilution buffer, a solution (5 µL) containing MgCl2 (30 mM), ATP (200 µM), recombinant human full length (200 ng) and N-terminal His-tagged MEK1 (Invitrogen) was added to start the assay, subsequent to incubation for 25 min at 25 °C. The assay was stopped using 5X protein denaturing buffer (LDS) solution (5 µL). To further denature the protein, heat (70° C) was applied for 5 min.
10 µL of each reaction was loaded into the precast plates and electrophoresis was allowed to proceed. After completion of electrophoresis, the front part of the precast gel plate (holding hot ATP) was cut and afterwards cast-off. The dried gel was developed using a phosphor screen.
Experimental for VEGFR-2: Prepare all the solutions using autoclaved, deionized water and analytical grade reagents.
and store all the reagents at room temperature (unless indicated otherwise).
solution, add 5 mL ultra-pure water; 1×Kinase Assay Buffer: add 25 mL HEPES solution (1 M),
water, adjust pH to 7.5 and constant volume to 500 mL using ultrapure water; 4×Stop solution (40
mM): Mix 0.8 mL of the foregoing EDTA solution, 1 mL 10×Detection Buffer and 8.2 mL ultra-
pure water; 1×Detection Buffer: Mix 1 mL 10×Detection Buffer with 9 mL water; 4×VEGFR
μM) was added to 624 μL 1×Kinase Assay Buffer and mixed; 4×ULight™-labeled JAK1
concentration 5 μM) was added to 576 μL 1×Kinase Assay Buffer and mixed; 4×ATP Solution
2×substrate/ATP Mix: 560 μL foregoing 4×ULight™-labeled JAK1 and 560 μL 4×ATP solution
and mixed (prepared before use). The assays used an ULight-labeled peptide substrate and a
Europium-W1024-labeled antiphosphotyrosine antibody. The VEGFR-2 was purchased from
Carna Biosciences, Inc. (New York, USA). The 384-well plates were obtained from PerkinElmer.
5 μL 2×VEGFR-2 kinase solution (0.5 nM)
was added to 384-well plates homogeneous mixing and pre-reaction at room temperature for 30 min. Next, 2.5 μL 4×Ultra ULightTM-JAK-1(Tyr1023) Peptide (200 nM)/ATP (40 μM) was added to the corresponding wells of a 384-well plate. Negative control: 2.5 μL/well 4×substrate/ATP mixture and 7.5 μL 1×kinase assay buffer in 384-well plate well. Positive control:
μL/well 2×VEGFR-2 kinase solution was added to the 384-well plate, The final concentration of DMSO in the mixing system was 4%. After incubation at room temperature and dark for 60 min, 5 μL 4×stop solution was added to corresponding wells to react for 5 min and then 5 μL 4×detection mix was added to the corresponding wells of a 384-well plate. The mixture was centrifugally mixed and stayed for 60 min at room temperature for color development. The plate was read using a Envision plate reader. The inhibition rate (%) = (positive well reading-compound well reading)/(positive well reading-negative well reading)×100. The corresponding IC50 values were calculated using GraphPad Prism 5.0.

In the case of `O=C(NCC(c1ccccc1)c1c(-c2ccccc2)[nH]c2ccccc12)c1cc2cc(Cl)ccc2[nH]1` (stereo not drawn) [Compound Va, 5-Chloro-N-(2-phenyl-2-(2-phenyl-1H-indol-3-yl)ethyl)-1H-indole-2-carboxamide], the melting point fell in the range of 112 to 114 °C. Also, in data set [1], the viability at 96 h, 50 µM was 91%. Moreover, the IC50 in data set [2] is 26 ± 2 nM. In the data set on caspase-3, the “Caspase-3 Conc” value worked out at 726 ± 6 pg/mL. Also, half-maximal inhibition against EGFR (IC50) required 71 ± 6 nM. Also, half-maximal inhibition at VEGFR-2 (IC50) required 2.15 ± 0.2 nM. Besides, on BRAF^V600E, the midpoint of inhibition, the IC50, lay at 77 ± 6 nM.
In the case of `CO/C=C/c1c(C(=O)NCC(c2ccccc2)c2c(-c3ccccc3)[nH]c3ccccc23)[nH]c2ccc(Cl)cc12` (stereo not drawn) [Compound Vg, (E)-5-Chloro-3-(2-methoxyvinyl)-N-(2-phenyl-2-(2-phenyl-1H-indol-3-yl)ethyl)-1H-indole-2-carboxamide], the melting point fell in the range of 140 to 142 °C. The compound also had a viability at 96 h, 50 µM in data set [1] of 89%. In addition, in data set [2], the concentration for half-maximal inhibition (IC50) was 30 ± 2 nM. Also, the “Caspase-3 Conc” value with caspase-3 came to 528 ± 5 pg/mL. In addition, the “Caspase-3 Fold Change” value with caspase-3 (vs untreated control) is on record as approximately 8. The compound also registered an IC50 at EGFR of 79 ± 6 nM. At VEGFR-2, this compound came in with a concentration for half-maximal inhibition (IC50) of 1.6 ± 0.1 nM. Moreover, half-maximal inhibition against BRAF^V600E (IC50) was put at 83 ± 6 nM.
